The experiment has as its system Caki-1 xenografts. As to the kind of experiment: Anti-tumor efficacy study EFF-02. Type of experiment: in vivo, CD1 nu/nu mice. The settings on record: p.o., 6–7 weeks. As for the experimental part: For all in vivo studies, human Caki-1 renal tumor cells (ATCC: HTB-46, RRID: CVCL_0234; 5 million in 100 µL PBS w/o Ca/Mg, Matrigel [1:1]) were subcutaneously inoculated into the right flank of female 5–6-week-old CD-1 nude mice provided by Charles River Laboratories (CRL), Sulzfeld, Germany. Tumor growth was observed over time by measuring tumor length (L) and width (W) twice weekly using calipers. Tumor volume was calculated using the formula LxW^2/2. Data were collected in Study Advantage™ (data collection system).
Anti-tumor efficacy study. […] PD analysis was not performed in this study.

Molecule `O=C(NCc1cc(F)cc(F)c1)[C@@]1(O)CCN(c2ccc3[nH]ccc3c2)C1=O` [M8891] came in with a minimal efficacious dose of 25 mg/kg BID.
